# Values quoted from earlier work, collected in patent US6613762B2, “Gambogic acid, analogs and derivatives as activators of caspases and inducers of apoptosis” (Cytovia, Inc., priority 1999, dated 2003).
# Test system: HEL cells
# Details: reported by Asano et al., Phytochemistry 41:815-820 (1996); cited from earlier work
smiles,measurement,value
"CC(C)=CCC[C@]1(C)C=Cc2c(O)c3c(c(CC=C(C)C)c2O1)O[C@]12C(=C[C@@H]4C[C@H]1C(C)(C)O[C@@]2(C/C=C(/C)C(=O)O)C4=O)C3=O [Example 1, Gambogic Acid]",Cytotoxicity to HEL cells,cytotoxic
